Patent US11752125B2, “Anti-neuroinflammatory and protective compounds in Achillea fragrantissima” (THE STATE OF ISRAEL MINISTRY OF AGRICULTURE & RURAL …, priority 2013, dated 2023)

Legend:
glutamate = test: Glutamate secretion from LPS-activated microglial cells; format: cell-based, rat; settings: LPS 100 ng/mL, 20 h
Method: For glutamate measurements, 3.5×10^4 cells/well were plated on a 24-well tissue culture plate. After 24 h of incubation in DMEM containing 10% FBS, cells were stimulated with LPS (100 ng/mL) and treated with different concentrations of achillolide A. Conditioned media were collected twenty hours later, and were tested for glutamate levels using a colorimetric enzymatic assay kit (glutamate assay kit, BioVision, CA, USA) according to the manufacturer's instructions. 7. Measure the levels of glutamate using a colorimetric enzymatic assay kit (glutamate assay kit, BioVision, CA, USA) according to the manufacturer's instructions. Microglial cells were treated with the indicated concentrations of achillolide A, followed by stimulation with LPS (100 ng/mL). After 20 h, conditioned media were collected and tested for glutamate levels by a commercial kit. Values represent the means±SEM (n=4 for each treatment). ** p<0.01; *** p<0.001, compared to LPS-stimulated cells.

p38 = test: H2O2-induced p38 phosphorylation in astrocytes (ELISA); format: cell-based, rat; settings: astrocytes preincubated 2 h, H2O2 175 μM 40 min
Method: Astrocytes were treated with 175 μM of H2O2 for 40 min following preincubation with achillolide A for 2 h. The levels of phosphorylated and total MEK1 (FIG. 40A), phosphorylated and total ERK1/2 (FIG. 40B), phosphorylated SAPK/JNK (FIG. 40C) and phosphorylated p38 (FIG. 40D) were measured by ELISA. The results are means±SEM of two experiments (n=4) for MEK1 and ERK 1/2, one experiment for SAPK/JNK and p38 (n=2). ***p<0.001.

CREB = test: H2O2-induced CREB phosphorylation in astrocytes (ELISA); format: cell-based, rat; settings: astrocytes pretreated 2 h, H2O2 175 μM 30 min; total CREB not affected
Method: Astrocytes were treated with TTF 2 h before the addition of H2O2. Cells were lysed 40 minutes after the addition of H2O2 in lysis buffer supplied by PathScan sandwich ELISA kit (Cell Signaling TECHNOLOGY) according to the manufacturer's protocol. Protein concentrations in cell lysates were determined by Bradford reagent (Bio-Rad, Hercules, Calif.), and equal amounts of proteins were subjected to ELISA. To measure the amount of total and phosphoSAPK/JNK in cell lysates of astrocytes, ELISA was performed according to the manufacturer's protocol using the PathScan total SAPK/JNK sandwich ELISA kit (Cell Signaling TECHNOLOGY) and the PathScan phospho-SAPK/JNK (Thr183/Tyr185) sandwich ELISA kit (Cell Signaling TECHNOLOGY), respectively. […] The optical density was determined at 450 nm using a microplate reader.
1. […] Determine the optical density at 450 nm using a microplate reader.
Astrocytes were treated with 175 μM of H2O2 for 30 min following preincubation with TTF for 2 h. The levels of phosphorylated and total CREB were measured by ELISA. […]

primary astrocytes = settings: Nones et al., 2012; cited from earlier work

C=C1CCC2=C(CO)C(=O)O[C@H]2/C=C(\C)[C@H](OC(C)=O)CC1=O [achillolide A]
inhibition of the LPS-induced levels of secreted glutamate (glutamate): 80% | effect on H2O2-induced phosphorylation of p38 (p38): inhibitory effect

COc1cc(-c2oc3cc(OC)c(OC)c(O)c3c(=O)c2O)ccc1O [TTF, 3,5,4′-trihydroxy-6,7,3′-trimethoxyflavone]
inhibition of H2O2-induced phosphorylation of CREB (CREB): 80%

O=c1c(O)c(-c2ccc(O)c(O)c2)oc2cc(O)cc(O)c12 [quercetin, 3,3′,4′,5,7-Pentahydroxyflavone, reference compound]
nontoxic concentration in primary astrocytes (primary astrocytes): up to 100 μM
